Assay results: ChEMBL document CHEMBL1158432, “A novel photoaffinity ligand for the dopamine transporter based on pyrovalerone” (Bioorg Med Chem, 2009)
pIC50, pKi: −log10 of the molar value. The source made the active and inactive calls. The calls are words filed in the database; no cut-off is given here.

Legend:
Type in all cases: cell-based
[1] = target: T1, Sodium-dependent dopamine transporter (Homo sapiens, UniProt Q01959); assay: Displacement of [3H]WIN-35428 from human dopamine transporter expressed in mouse N2A cells by scintillation counting
[2] = target: T1, Sodium-dependent dopamine transporter; assay: Inhibition of [3H]dopamine uptake at human dopamine transporter expressed in mouse N2A cells by scintillation counting
[3] = target: Sodium-dependent dopamine transporter (Rattus norvegicus) (UniProt P23977); assay: Binding affinity to rat dopamine transporter expressed in pig LLC-PK1 cells assessed as drug incorporation at 30 nM after 1 hr by SDS-PAGE analysis in presence of cocaine; details: tested as the 125I-labelled form
[4] = target: Sodium-dependent dopamine transporter (Rattus norvegicus) (UniProt P23977); assay: Binding affinity to rat dopamine transporter expressed in pig LLC-PK1 cells assessed as drug incorporation at 30 nM after 1 hr by SDS-PAGE analysis; details: tested as the 125I-labelled form

T1 sequence (Q01959 whole entry): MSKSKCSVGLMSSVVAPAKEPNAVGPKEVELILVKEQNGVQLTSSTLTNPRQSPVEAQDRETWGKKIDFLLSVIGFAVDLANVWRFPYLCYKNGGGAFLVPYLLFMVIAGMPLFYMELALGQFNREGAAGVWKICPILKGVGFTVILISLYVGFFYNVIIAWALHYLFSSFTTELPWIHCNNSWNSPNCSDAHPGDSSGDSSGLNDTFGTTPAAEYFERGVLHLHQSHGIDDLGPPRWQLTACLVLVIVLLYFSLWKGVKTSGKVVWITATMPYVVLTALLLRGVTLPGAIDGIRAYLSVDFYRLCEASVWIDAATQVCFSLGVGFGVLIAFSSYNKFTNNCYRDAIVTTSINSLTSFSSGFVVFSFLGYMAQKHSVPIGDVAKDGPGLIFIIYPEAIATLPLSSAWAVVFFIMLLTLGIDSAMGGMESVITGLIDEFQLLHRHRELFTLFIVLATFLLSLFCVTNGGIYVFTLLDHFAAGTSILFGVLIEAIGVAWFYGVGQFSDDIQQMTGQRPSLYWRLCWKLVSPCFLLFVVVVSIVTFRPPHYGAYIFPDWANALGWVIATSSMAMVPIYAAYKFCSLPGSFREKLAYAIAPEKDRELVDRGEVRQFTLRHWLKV
Chain of Sodium-dependent dopamine transporter (Rattus norvegicus) (P23977 whole entry): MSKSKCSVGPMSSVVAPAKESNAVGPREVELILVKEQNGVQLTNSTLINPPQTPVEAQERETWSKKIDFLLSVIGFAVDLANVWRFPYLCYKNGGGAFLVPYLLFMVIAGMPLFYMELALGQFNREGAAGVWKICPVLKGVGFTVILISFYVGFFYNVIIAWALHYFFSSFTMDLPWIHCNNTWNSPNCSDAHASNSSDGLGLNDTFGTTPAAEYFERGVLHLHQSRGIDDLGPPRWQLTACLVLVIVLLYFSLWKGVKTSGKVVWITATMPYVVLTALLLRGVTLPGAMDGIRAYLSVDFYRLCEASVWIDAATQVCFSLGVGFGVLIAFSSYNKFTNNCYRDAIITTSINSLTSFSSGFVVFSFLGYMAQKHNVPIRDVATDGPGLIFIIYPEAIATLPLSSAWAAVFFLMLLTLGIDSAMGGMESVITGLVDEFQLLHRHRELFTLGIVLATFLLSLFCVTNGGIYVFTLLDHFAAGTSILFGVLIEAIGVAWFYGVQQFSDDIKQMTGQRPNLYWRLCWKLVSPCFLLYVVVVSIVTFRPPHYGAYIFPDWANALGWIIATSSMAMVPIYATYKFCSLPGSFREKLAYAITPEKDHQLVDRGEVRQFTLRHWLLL

| Compound | pKi [1] | pIC50 [2] | Activity [3] | Activity [4] |
| --- | --- | --- | --- | --- |
| CCCC(C(=O)c1ccc(N)cc1)N1CCCC1 (stereo not given) | 8.30 | 8.15 | – | – |
| CCCC(C(=O)c1ccc(N=[N+]=[N-])c(I)c1)N1CCCC1 (stereo not given) | 7.11 | 6.58 | inactive | Active |
| CCCC(C(=O)c1ccc(N)c(I)c1)N1CCCC1 (stereo not given) | 7.55 | 6.76 | – | – |
| CCCC(C(=O)c1ccc(C)cc1)N1CCCC1 (stereo not given) [PYROVALERONE] | 8.10 | 7.49 | – | – |
